ChEMBL document CHEMBL3112510, “Optimization, pharmacophore modeling and 3D-QSAR studies of sipholanes as breast cancer migration and proliferation inhibitors” (Eur J Med Chem, 2014)

Experiments:
[1] = test system: MDA-MB-231; assay: Antimigratory activity in human MDA-MB-231 cells after 24 hrs by wound healing assay; details: MDA-MB-231, 24 h
[2] = test system: MDA-MB-231; assay: Antiproliferative activity against human MDA-MB-231 cells after 72 hrs by MTT assay; details: MDA-MB-231, 72 h
[3] = test system: MCF7; assay: cells; details: Homo sapiens, MCF7, 72 h

Compound `CC1=CC[C@H]2[C@H](CC[C@]2(C)O)C(C)(C)[C@@H]1CC[C@H]1[C@]2(C)CC/C(=N/OC(=O)c3ccccc3)C(C)(C)O[C@H]2CC[C@@]1(C)O` has an IC50 [1] of 28.5 µM, an IC50 ([1]; read-out: pIC50 (converted)) of 28.5 µM and an IC50 [2] of 27.4 µM. For the same compound, the IC50 [3] was 25.6 µM.

With `CC1=C(CC[C@H]2[C@]3(C)CC[C@H](O)C(C)(C)O[C@H]3CC[C@@]2(C)O)[C@](C)(C/C=C/C(C)(C)O)[C@H](O)CC1` the IC50 [1] was greater than 50 µM, the IC50 ([1]; read-out: pIC50 (converted)) was 59 µM and the IC50 [2] was greater than 50 µM. The IC50 [3] was 21.8 µM.

In the case of `CC1=CC[C@H]2[C@@H]1CC=C(C)[C@@H](CCC1=C(C)CC[C@@H]3OC(C)(C)[C@@H](O)CC[C@@]13C)C2(C)C`, the IC50 [1] is reported as 46.7 µM, the IC50 ([1]; read-out: pIC50 (converted)) is reported as 46.7 µM and the IC50 [2] is reported as greater than 50 µM. For the same compound, the IC50 [3] was greater than 50 µM.

Work on `CC1(C)CC[C@](C)(O)[C@H]2C[C@H](O)[C@]3(C)O[C@]3(CC[C@H]3[C@]4(C)CC[C@H](O)C(C)(C)O[C@H]4CC[C@@]3(C)O)[C@H]21` yielded an IC50 [1] greater than 50 µM, an IC50 ([1]; read-out: pIC50 (converted)) of 92.9 µM and an IC50 [2] greater than 50 µM. It also gave an IC50 [3] greater than 50 µM.

Work on `CC1=CC[C@H]2[C@H](CC[C@]2(C)O)C(C)(C)[C@@H]1CC[C@H]1[C@]2(C)CC[C@H](OCc3ccccc3)C(C)(C)O[C@H]2CC[C@@]1(C)O` yielded an IC50 [1] of 12.2 µM, an IC50 ([1]; read-out: pIC50 (converted)) of 12.2 µM and an IC50 [2] of 29.1 µM. The IC50 [3] was greater than 50 µM.

`CC1=CC[C@H]2[C@@H]1CC=C(C)[C@@H](CC[C@H]1[C@]3(C)CC[C@H](OCc4ccccc4)C(C)(C)O[C@H]3CC[C@@]1(C)O)C2(C)C` gave an IC50 [1] of 13.4 µM, an IC50 ([1]; read-out: pIC50 (converted)) of 13.4 µM and an IC50 [2] of 35.7 µM. The IC50 [3] was greater than 50 µM.

`CC1=CC[C@H]2[C@@H]1CC=C(C)[C@@H](CC[C@H]1[C@]3(C)CC[C@H](OC(=O)CCC(=O)O)C(C)(C)O[C@H]3CC[C@@]1(C)O)C2(C)C` showed an IC50 [1] of 21 µM, an IC50 [2] of 29.6 µM and an IC50 [3] greater than 50 µM.

Compound `CC1=CC[C@H]2[C@H](CC[C@]2(C)O)C(C)(C)[C@@H]1CC[C@H]1[C@]2(C)CC[C@H](OC(=O)NCc3ccccc3)C(C)(C)O[C@H]2CC[C@@]1(C)O` has an IC50 [1] of 13.9 µM, an IC50 ([1]; read-out: pIC50 (converted)) of 13.9 µM and an IC50 [2] of 40.3 µM. The IC50 [3] was 24.5 µM.

With `CC1=CC[C@H]2[C@H](CC[C@]2(C)O)C(C)(C)[C@@H]1CC[C@H]1[C@]2(C)CC[C@H](OC(=O)c3ccc(C)cc3)C(C)(C)O[C@H]2CC[C@@]1(C)O` the IC50 [1] was 11.8 µM, the IC50 ([1]; read-out: pIC50 (converted)) was 11.8 µM and the IC50 [2] was 33.4 µM. It also gave an IC50 [3] greater than 50 µM.

Compound `CC1=CC[C@H]2[C@@H]1CC=C(C)[C@@H](CC[C@H]1[C@]3(C)CC[C@H](OC(=O)c4ccc(Cl)cc4)C(C)(C)O[C@H]3CC[C@@]1(C)O)C2(C)C` has an IC50 [1] of 5.9 µM, an IC50 [2] of 12.7 µM and an IC50 [3] of 22 µM.

Compound `CC1=CC[C@H]2[C@H](CC[C@]2(C)O)C(C)(C)[C@@H]1CC[C@H]1[C@]2(C)CC[C@H](OC(=O)CCC(=O)O)C(C)(C)O[C@H]2CC[C@@]1(C)O` has an IC50 [1] of 18 µM, an IC50 ([1]; read-out: pIC50 (converted)) of 18 µM and an IC50 [2] of 27.9 µM. The IC50 [3] was greater than 50 µM.

For `CC1=CC[C@H]2[C@@H]([C@@H]1CC[C@H]1[C@]3(C)CC[C@H](O)C(C)(C)O[C@H]3CC[C@@]1(C)O)C(C)(C)CC[C@]2(C)O`, the IC50 [1] was 42 µM, the IC50 ([1]; read-out: pIC50 (converted)) was 42 µM and the IC50 [2] was greater than 50 µM. The IC50 [3] was greater than 50 µM.

Compound `CC1(C)O[C@H]2CC[C@@](C)(O)[C@@H](CC[C@@H]3C(C=O)=CC[C@H]4[C@H](CC[C@]4(C)O)C3(C)C)[C@]2(C)CCC1=O` has an IC50 [1] of 42.6 µM, an IC50 ([1]; read-out: pIC50 (converted)) of 42.6 µM and an IC50 [2] greater than 50 µM. The IC50 [3] was greater than 50 µM.

`CC1(C)O[C@H]2CC[C@@](C)(O)[C@@H](CC[C@H]3C(C)(C)[C@@]4(O)CC[C@](C)(O)[C@H]4C[C@H]4O[C@]43C)[C@]2(C)CCC1=O` showed an IC50 [1] of 33 µM, an IC50 ([1]; read-out: pIC50 (converted)) of 33 µM and an IC50 [2] greater than 50 µM. For the same compound, the IC50 [3] was greater than 50 µM.

`CC1=C(CC[C@H]2[C@]3(C)CC[C@H](O)C(C)(C)O[C@H]3CC[C@@]2(C)O)[C@](C)(C/C=C/C(C)(C)OO)[C@H](O)CC1` was tested, and the IC50 [1] was greater than 50 µM, the IC50 ([1]; read-out: pIC50 (converted)) was 54 µM and the IC50 [2] was greater than 50 µM. It also gave an IC50 [3] of 27.4 µM.

Work on `C=C(C)C(CC[C@@]1(C)C(CC[C@H]2[C@]3(C)CC[C@H](O)C(C)(C)O[C@H]3CC[C@@]2(C)O)=C(C)CC[C@H]1O)OO` (some centres undefined) [SIPHONELLINOL E] yielded an IC50 [1] of 39 µM, an IC50 ([1]; read-out: pIC50 (converted)) of 39 µM and an IC50 [2] greater than 50 µM. The IC50 [3] was 31.2 µM.

`CC1=CC[C@H]2[C@@H]1CC=C(C)[C@@H](CC[C@H]1[C@]3(C)CC[C@H](OC(=O)c4ccccc4)C(C)(C)O[C@H]3CC[C@@]1(C)O)C2(C)C` gave an IC50 [1] of 7.2 µM, an IC50 ([1]; read-out: pIC50 (converted)) of 7.19 µM and an IC50 [2] of 18.4 µM. For the same compound, the IC50 [3] was 23.1 µM.

`CC1(C)O[C@H]2CC[C@@](C)(O)[C@@H](CC[C@@H]3C(CO)=CC[C@H]4[C@H](CC[C@]4(C)O)C3(C)C)[C@]2(C)CC[C@@H]1O` was tested, and the IC50 [1] was greater than 50 µM, the IC50 ([1]; read-out: pIC50 (converted)) was 87.5 µM and the IC50 [2] was greater than 50 µM. The IC50 [3] was greater than 50 µM.

In the case of `CC1=CC[C@H]2[C@@H]1CC=C(C)[C@@H](CC[C@H]1[C@]3(C)CC[C@H](OC(=O)c4ccc(C)cc4)C(C)(C)O[C@H]3CC[C@@]1(C)O)C2(C)C`, the IC50 [1] is reported as 12.3 µM, the IC50 ([1]; read-out: pIC50 (converted)) is reported as 12.3 µM and the IC50 [2] is reported as 32.7 µM. For the same compound, the IC50 [3] was greater than 50 µM.
